In patent publication US11274144B2, “Compositions and methods for the removal of biofilms” (priority 2013, dated 2022):

Legend:
NTHI biofilms = assay: synergism on pre-formed NTHI biofilms (FIGS. 14A-14C); type: cell-based
Method: To this end the ability to induce augmented structural destabilization of pre-formed NTHI biofilms was assessed when a sub-optimal concentration of anti-IHF was used along with one of each of three unique reagents.

dsDNA = settings: DNA (10 μM) to IHF (5 μM); FIG. 11
Method: Middle ears were again subsequently scored from 0 to 4+ for disease severity upon completion of the study. To better assure that the IHF and DNA remained in complex for immunization, synthetic oligonucleotides identical to those used in the published co-crystallization study (see for e.g., Rice et al. (1996) Cell 87(7): 1295-1306) of a high affinity IHF binding site from the bacteriophage lambda recombination site attP at a molar ratio of 2:1 [DNA (10 μM) to IHF (5 μM)] was used.

IHF = molecular target: T1, IHF (Escherichia coli, UniProt P0A6X7+P0A6Y1); assay: antibody response after subcutaneous immunization of chinchillas (Western blot, ELISA); type: in vivo, E. coli; settings: chinchilla
T1 construct: IHF promoter purified from E. coli K12 (the full length combination of both IHF subunits); made in house; host or cells: E. coli overproducing strains (lambda PL promoter plasmids, e.g. K5746 / E738)
Description: Each animal received a priming dose followed by two identical boosts delivered at 30-day intervals.

NTHI strain 86-028NP = system: NTHI strain 86-028NP
Method: 48 adults were ordered from Rauscher's Chinchilla Ranch (LaRue, Ohio) and were acclimated to the vivarium for 7-10 days prior to the beginning of the study. Prior to TB [transbullar or direct challenge into the middle ear cavity] challenge, baseline otoscopy and tympanometry were performed as well as a limited volume prebleed to collect serum. Chinchillas were anesthetized and 300 μl of NTHI (strain #86-028NP) suspension containing approximately 1000 cfu were introduced into the middle ear space via transbullar challenge. Animals were allowed to recover, then monitored daily for adverse reactions as per IACUC accepted animal use protocols. Routine otoscopy and tympanometry were performed every 2-3 days throughout the study.
Four days after challenge (day +4), chinchillas were anesthetized and a CT scan was performed to visualize biofilms present within the middle ear and to obtain pre-immunization images. The surface of the pinnae were cleaned and hydrated by wiping with a sterile gauze pad moistened with sterile pyrogen free saline. After ˜2 minutes (to allow the pinnae to dry), 50 μl of either the dmLT, IHF (purified E. coli IHF according to Experiment 1)+dmLT, or IHF+rsPiLA+dmLT solution will be added to the pinna and gently massaged in. Three chinchillas per cohort were sacrificed and tissues/samples collected (on days +4, and +11) to begin to determine mechanism of action.
Eleven days after challenge (day +11), the secondary immunization occurred as described above wherein the pinnae are cleaned/hydrated and immunogens were topically administered. Three chinchillas per cohort were sacrificed and tissues/samples collected to begin to determine mechanism of action.
Eighteen days after challenge (day +18), chinchillas were anesthetized and a CT scan were performed to identify any biofilms present, as well as to compare to the pre-immunization CT scans. The animals were then bled to collect serum and euthanized. […] Images were collected and the bulla were washed with 1 ml of sterile saline and re-imaged. The mucosa, along with any biofilm present, were collected from the right bulla and placed in a preweighed tube. These tissues were homogenized, serially diluted, and plated to determine cfu NTHI/mg wet weight tissue. The left bullae were filled with OCT compound and snap frozen for histological analysis.
Images of the left and right middle ear cavities, with resident biofilms, were scrambled and two images per animal were compiled into a single file for ranking by blinded evaluators. The relative amount of biomass remaining within the middle ear of each animal was ranked on a 0 to 4+ scale by blinded reviewers using the scale shown in Table 6 below. Titer ELISAs, cytokine arrays, and Biacore were run on the serum as well as on the collected middle ear effusions. The OCT embedded middle ears were sectioned and stained either for basic morphology and architecture (H&E) or for the presence of IHF using immunohistochemistry and/or immunofluorescence.
For the second animal immunization study, twenty adult chinchillas (body mass between 500-700 g), shown to have no evidence of middle ear disease by tympanometry and video otoscopy, were enrolled and divided into four cohorts of 5 animals each. All animals were again challenged transbullarly with approximately 1000 CFU NTHI strain 86-028NP per bulla. Four days later, after a biofilm formed in the middle ear cavities of these animals, they were immunized by a transcutaneous route (TCI) as described above. Formulations consisted of either: 10 μg IHF admixed with 10 μg dmLT, 10 μg IHF that had been pre-bound to DNA+dmLT, DNA+dmLT, or 10 μg dmLT alone.
Middle ears were again subsequently scored from 0 to 4+ for disease severity upon completion of the study.

[1] = BIACORE epitope mapping with antiserum of chinchillas immunized with IHF pre-complexed to DNA; type: binding, chinchilla; settings: BIACORE biosensor
Description: (§1) To test this hypothesis, additional cohorts of chinchillas were immunized with either native full length IHF from E. coli (obtained from Nash) or with native full length IHF from E. coli (obtained from Nash) that had been complexed to an excess of double stranded DNA in order to best mimic how it would be presented in nature.

[2] = BIACORE epitope mapping with antiserum of chinchillas immunized with native IHF; type: binding, chinchilla; settings: BIACORE biosensor
Description: as §1

[3] = molecular target: Haemophilus influenzae IHF (Haemophilus influenzae, UniProt P43723); settings: also known as IhfA5; cited from earlier work
Staphylococcus aureus HU = Staphylococcus aureus HU (Staphylococcus aureus, UniProt Q5HFV0); settings: cited from earlier work
[4] = amoxicillin 64 μg/ml, IHF antisera 1:50 dilution
[5] = first study, transcutaneous immunization

T1 sequence (P0A6X7 2-99): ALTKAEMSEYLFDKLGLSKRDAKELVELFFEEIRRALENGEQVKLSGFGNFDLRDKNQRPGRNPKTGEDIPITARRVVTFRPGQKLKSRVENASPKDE
T1 sequence (P0A6Y1 whole entry): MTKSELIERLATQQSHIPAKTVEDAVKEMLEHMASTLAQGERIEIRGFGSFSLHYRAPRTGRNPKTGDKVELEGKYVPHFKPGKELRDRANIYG

## CC1(C)S[C@@H]2[C@H](NC(=O)[C@H](N)c3ccc(O)cc3)C(=O)N2[C@H]1C(=O)O [amoxicillin]
NTHI biofilms; [4]
  bacterial cell death in biofilm (vital dye, FIG. 14C): limited bacterial cell death
  effect on architecture/height of pre-formed NTHI biofilm (FIG. 14C): no measurable effect on the architecture

## DNase
NTHI biofilms; DNase at sub-optimal concentration, anti-IHF 1:200 dilution
  effect on pre-formed NTHI biofilm (FIG. 14A): marginal effect

## E. coli IHF: purified E. coli integration host factor, full length combination of both subunits, used as immunogen with adjuvant
dsDNA
  binding of dsDNA (reduced mobility): bound dsDNA
IHF; SQ immunization 10 μg with MPL, pre-immune reciprocal titers 100
  reciprocal titer versus isolated IHF by ELISA: 8000
IHF; SQ immunization with MPL, FIG. 13
  antibodies recognizing IHF by Western blot: strong immune response to isolated IHF
NTHI strain 86-028NP; first study, 2 weekly transcutaneous immunizations with dmLT adjuvant, day 18 after challenge, adjuvant only 2.8, 0 to 4+ scale
  mean score for remaining biomass within the middle ears: 1.5
NTHI strain 86-028NP; first study, homogenized biomass cultured on chocolate agar, vs adjuvant alone, FIG. 10B
  bacterial load within remaining biomass: statistically significant reduction of bacterial load
NTHI strain 86-028NP; [5]
  immune response to immunization: strong local and systemic immune response
  secondary sequelae of immunization noted upon necropsy: no animal presented with obvious secondary sequelae
NTHI strain 86-028NP; in vivo
  resolution of experimental otitis media: eradicating experimental otitis media significantly earlier than controls
NTHI strain 86-028NP; second study, TCI, 10 μg with 10 μg dmLT, adjuvant alone 2.2, 0 to 4+ scale, FIG. 12
  mean residual middle ear biomass score: 0.9

## FLEEIRLSLESGQDVKLSGF (listed as Haemophilus influenzae) [A3, amino acids 31 to 50 of IHF]
[1]
  immune recognition of 20-mer peptides: greatest recognition

## RGFGSFSLHHRQPRLGRNPK (listed as Haemophilus influenzae) [B4, 46 to 65 of IHF]
[2]
  immune recognition of 20-mer peptides: greatest immune recognition

## RPGRNPKTGDVVPVSARRVV (listed as Haemophilus influenzae) [A5, amino acids 61 to 80 of IHF]
[2]
  immune recognition of 20-mer peptides: greatest immune recognition

B1: TRL295: antibody, HC SEQ ID NO: 413, LC SEQ ID NO: 414 (antibody, V domains shown)
VH: QVQLVESGGGLVQPGGSLRLSCAASGFPFSSYAMSWVRQAPGKGLEWVSAISGNGADSYYADSVKGRFTTSRDKSKNTVYLQMNRLRAEDTAVYYCAKDMRRYHYDSSGLHFWGQGTLVTVSS
VL: DIELTQAPSVSVYPGQTARITCSGDALPKQYAYWYQQKPGQAPVVVIYKDSERPSGISERFSGSSSGTTVTLTISGVQAGDEADYYCQSVDTSVSYYVVFGGGTKLTVL
[3]
  epitope bound: bind to residues 61-80

B2: TRL1330: antibody, HC SEQ ID NO: 439, LC SEQ ID NO: 440 (antibody, V domains shown)
VH: QVQLVESGTEVKNPGASVKVSCTASGYKFDEYGVSWVRQSPGQGLEWMGWISVYNGKTNYSQNFQGRLTLTTETSTDTAYMELTSLRPDDTAVYYCATDKNWFDPWGPGTLVTVSS
VL: DIVLTQSPSASGSPGQSITISCTGTNTDYNYVSWYQHHPGKAPKVIIYDVKKRPSGVPSRFSGSRSGNTATLTVSGLQTEDEADYYCVSYADNNHYVFGSGTKVTVL
Staphylococcus aureus HU; SEQ ID NO: 455
  binding for fragment […]: high affinity binding

B3: TRL1338: antibody, HC SEQ ID NO: 445, LC SEQ ID NO: 446 (antibody, V domains shown)
VH: QVQLTLRESGPTLVKPTQTLTLTCTFSGFSLSTNGVGVGWIRQPPGKALEWLAIIYWDDDKRYSPSLKSRLTITKDTSKNQVVLTLTNMDPVDTGTYYCAHILGASNYWTGYLRYYFDYWGQGTLVTVST
VL: DIEMTQSPSVSVSPGQTARITCSGEPLAKQYAYWYQQKSGQAPVVVIYKDTERPSGIPERFSGSSSGTTVTLTISGVQAEDEADYHCESGDSSGTYPVFGGGTKLTVL
Staphylococcus aureus HU; SEQ ID NO: 456
  binding for fragment VPAFKAGKALKDAVK: high affinity binding
